Experimental data taken from PMC12321279, “Novel 4,5‐Dihydrothiazole‐Phenylpiperazine Derivatives: Synthesis, Docking Studies and Pharmacological Evaluation as Serotonergic Agents” (Chemmedchem, 2025).

What was measured:
larval zebrafish [1] = experiment: Light–dark transition assay in larval zebrafish; assay type: in vivo, zebrafish (Danio rerio); conditions: 5 dpf larvae, 20 h incubation at maximum‐tolerated concentration (FG‐1 500 μM, FG‐18 25 μM)
Description: (§1) All experiments were conducted on zebrafish (Danio rerio) larvae up to 5 days post fertilization (dpf), therefore, in accordance with current European legislation, ethical permission to conduct assays was not required. However, housing and experimental procedures were performed in compliance with the National Institute of Health Guidelines for the Care and Use of Laboratory Animals and the European Union Directive of 22 September 2010 (2010/63/EU) on protecting animals used for scientific purposes. All efforts were taken to minimize larvae stress and suffering. Larvae were euthanized with an overdose of tricaine ([…]). […] Before the respective behavioral tests were conducted, larvae at 4 dpf were incubated for 20 h in different arylpiperazine derivatives solutions of maximum‐tolerated concentrations (MCTs), determined during toxicological screening.^[ [30], [32] ^] […] Basic locomotor activity was measured using an automated tracking device, Daniovision by Noldus, and the total distance traveled was quantified using EthoVision XT software of the same company (Wageningen, the Netherlands) over a 30 min long observation period. […] The PTZ‐induced hyperlocomotion (acute seizure assay) was assessed in 5 dpf larval zebrafish (after 20 h incubation with tested derivatives at MCTs). […] Similarly, the data were recorded as the distance traveled (mm) by larvae when exposed to alternating lightning. […]

larval zebrafish [2] = experiment: PTZ‐induced acute seizure assay in larval zebrafish; assay type: in vivo, zebrafish (Danio rerio); conditions: 5 dpf larvae, 20 h incubation at maximum‐tolerated concentration (FG‐1 500 μM, FG‐18 25 μM), PTZ 20 mM, 30 min
Description: as §1

mice = experiment: Novel object recognition (NOR) test; assay type: in vivo; conditions: doses of 30 and 15 mg kg^−1 i.p. 60 min prior to first trial
Description: The tests were performed on male white mice of the Albino Swiss strain, whose weight was between 24 and 30 g in Experimental Medicine Center, Medical University of Lublin, Poland. The animals were housed (four/five per cage). Before conducting the experimental tests, the animals were subjected to an adaptation that lasted seven days. This consisted of keeping them in a room with relatively constant conditions: a temperature of 22 ± 1 °C, a humidity of 55 ± 5% and lighting that mimicked the natural day and night rhythm (12 h/12 h). Constant access to food and water was provided. Standard feed—LSM Motycz pelleted feed—and tap water were used. Mice were randomly allocated to study groups. Each group was represented by 8–10 animals, depending on the research schedule. […]
The setup for the NOR test consisted of a square, open‐ended Plexiglas box (46 cm long × 35 cm high × 33 cm wide), with a 10‐lux light source suspended 50 cm above it. […] The duration of exploration of each object at T1, T2, and T3 was manually recorded using a stopwatch. The discrimination between F and N during T2 or T3 was assessed by comparing the time spent exploring each of them. Memory performance was assessed using the DI, calculated as (N − F)/ (N + F), representing the difference in exploration time between N and F, normalized by the total exploration time for both objects. […]

Compound: O=C(NCCCN1CCN(c2ccc(C3=NCCS3)cc2)CC1)C1CC2C=CC1C2 (stereo not drawn) [FG‐18, Endo‐ N‐(3‐(4‐(4‐(4,5‐dihydrothiazol‐2‐yl)phenyl)piperazin‐1‐yl)propyl) bicyclo[2.2.1]hept‐5‐ene‐2‐carboxamide]
- larval behavior under the dark conditions (light–dark transition) (larval zebrafish [1]): influenced larval behavior under the dark conditions
- distance traveled by PTZ‐exposed larvae (seizure‐like behavior) (larval zebrafish [2]): significantly increased the distance traveled

Compound: O=C(NCCCN1CCN(c2ccccc2C2=NCCS2)CC1)c1ccccn1 [FG‐1, N‐(3‐(4‐(2‐(4,5‐dihydrothiazol‐2‐yl) phenyl) piperazin‐1‐yl) propyl) picolinamide]
- larval behavior under the dark conditions (light–dark transition) (larval zebrafish [1]): influenced larval behavior under the dark conditions
- distance traveled by PTZ‐exposed larvae (seizure‐like behavior) (larval zebrafish [2]): substantially decreased

Compound: O=C1C2C3C=CC(C3)C2C(=O)N1OCCCN1CCN(c2ccccc2C2=NCCS2)CC1 (centres unmarked) [FG‐7, 2‐(3‐(4‐(2‐(4,5‐dihydrothiazol‐2‐yl) phenyl) piperazin‐1‐yl) propoxy)‐3a,4,7,7a‐tetrahydro‐1 H‐4,7‐methanoisoindole‐1,3(2 H)‐dione]
- NOR test, memory consolidation expressed by the discrimination index (DI) (mice): showed activity in the novel object recognition (NOR) test
